Measurements as given in ChEMBL document CHEMBL3232992, “Synthesis and the hepatoprotective activity of dibenzocyclooctadiene lignan derivatives” (2014).

Tested on: L02
Experiment: Hepatoprotective activity against carbon tetrachloride-induced toxicity in human HL-7702 cells assessed as increase of cell survival rate at 0.2 ug/ul pretreated for 12 hrs before carbon tetrachloride addition by MTS assay relative to control
Assay type: functional

COc1c(Cl)c2c(c(OC)c1OC)-c1c(c(Cl)c(OC)c(OC)c1OC)C[C@](C)(O)[C@@H](C)C2
Survival: 44%

COc1cc2c(c(OC)c1OC)-c1c(c(Cl)c(OC)c(OC)c1OC)C[C@](C)(O)[C@@H](C)C2
Survival: 44%

COc1c(Br)c2c(c(OC)c1OC)-c1c(c(Br)c(OC)c(OC)c1OC)C[C@](C)(O)[C@@H](C)C2
Survival: 54.2%

COc1cc2c(c(OC)c1OC)-c1c(c(Br)c(OC)c(OC)c1OC)C[C@](C)(O)[C@@H](C)C2
Survival: 50%

COc1c(I)c2c(c(OC)c1OC)-c1c(c(I)c(OC)c(OC)c1OC)C[C@](C)(O)[C@@H](C)C2
Survival: 45%

COc1cc2c(c(OC)c1OC)-c1c(c(I)c(OC)c(OC)c1OC)C[C@](C)(O)[C@@H](C)C2
Survival: 40.9%

COC1=C(OC)C23C(=CC1=O)CC(C)C2(C)Cc1cc(OC)c(OC)c(OC)c13 (stereo unspecified)
Survival: 34.6%

COc1c(Br)c2c(c(OC)c1OC)-c1c(c(OC)c(OC)c(OC)c1OC)C[C@](C)(O)[C@@H](C)C2
Survival: 73.6%

COc1c(Cl)c2c(c(OC)c1OC)-c1c(c(Cl)c3c(c1OC)OCO3)C[C@H](C)[C@H](C)C2
Survival: 51.8%

COc1c(Cl)c2c(c(OC)c1OC)-c1c(cc3c(c1OC)OCO3)C[C@H](C)[C@H](C)C2
Survival: 43.4%

COc1c(Br)c2c(c(OC)c1OC)-c1c(c(Br)c3c(c1OC)OCO3)C[C@H](C)[C@H](C)C2
Survival: 63.4%

COc1c(Br)c2c(c(OC)c1OC)-c1c(cc3c(c1OC)OCO3)C[C@H](C)[C@H](C)C2
Survival: 49.1%

COc1c(I)c2c(c(OC)c1OC)-c1c(c(I)c3c(c1OC)OCO3)C[C@H](C)[C@H](C)C2
Survival: 90%

COc1c(OC)c(C(C)=O)c2c(c1OC)-c1c(cc3c(c1OC)OCO3)C[C@H](C)[C@H](C)C2
Survival: 44.4%

COc1cc2c(c(OC)c1OC)-c1c(cc(OC)c(OC)c1OC(C)=O)C[C@H](C)[C@H](C)C2
Survival: 65%

COc1c(O)c2c(c(Cl)c1OC)C[C@H](C)[C@H](C)Cc1c(Cl)c(OC)c(OC)c(OC)c1-2
Survival: 98.5%

COc1cc2c(c(OC)c1OC)-c1c(O)c(OC)c(OC)c(Cl)c1C[C@H](C)[C@H](C)C2
Survival: 63%

COc1c(O)c2c(c(Br)c1OC)C[C@H](C)[C@H](C)Cc1c(Br)c(OC)c(OC)c(OC)c1-2
Survival: 83%

COc1cc2c(c(OC)c1OC)-c1c(O)c(OC)c(OC)c(Br)c1C[C@H](C)[C@H](C)C2
Survival: 82%

COc1c(O)c2c(c(I)c1OC)C[C@H](C)[C@H](C)Cc1c(I)c(OC)c(OC)c(OC)c1-2
Survival: 50%

COC1=C(OC)C(OC(C)=O)C2=C(C[C@H](C)[C@H](C)Cc3cc(OC)c(OC)c(OC)c32)C1=O (stereo partly specified)
Survival: 52.7%

COC1=C(OC)C(=O)C2=C(C[C@H](C)[C@H](C)Cc3cc(OC)c(OC)c(OC)c32)C1=O
Survival: 85.5%

COC(=O)c1cc(OC)c2c(c1-c1c(C(=O)OC)cc(OC)c3c1OCO3)OCO2 [BIFENDATE]
Survival: 40.3%

COc1cc2c(c(O)c1OC)-c1c(cc(OC)c(OC)c1OC)C[C@@H](C)[C@@H](C)C2 [SCHISANHENOL]
Survival: 48.1%

COc1cc2c(c(OC)c1OC)-c1c(cc(OC)c(OC)c1OC)C[C@](C)(O)[C@@H](C)C2 [SCHIZANDRIN]
Survival: 43.3%

COc1cc2c(c(OC)c1OC)-c1c(cc3c(c1OC)OCO3)C[C@H](C)[C@H](C)C2 [WUWEIZISU B]
Survival: 42.8%
